Measured values taken from patent US5079257A, “Indoloquinone compounds” (priority 1986, dated 1992).
In brackets after ≈: the same amount, converted by molar mass. Like-named read-outs stand apart in the source and are kept apart here.

Tests used:
lung-NSCLC tumour line = assay: Colony inhibition in vitro, continuous drug exposure (Freiburg); format: cell-based, human; details: for activity at 1 µg/mL: 1.0 μg/ml
Procedure: Three indoloquinones were tested at the University of Freiburg with respect to their in vitro inhibition of colony formation of the following five human tumour cell lines: lung-NSCLC, breast, renal and two colon lines.

WiDr cells; colon tumour = assay: In vitro panel of human tumour lines (TNO): WiDr; format: cell-based; details: about 72 hours; further: key: -: no inhibition of cell growth; +: total cell-kill
Method in brief: (§1)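 Cells in Dulbecco's medium with 10% foetal calf serum were seeded 48 h, then exposed continuously to increasing compound concentrations (final ethanol <1%) for about 72 h at 37° in 10% CO2. Crystal violet staining after fixation; inhibiting concentration estimated qualitatively.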

[1] = system: T 24 cells; bladder carcinoma; assay: In vitro panel of human tumour lines (TNO): T 24; format: cell-based; details: about 72 hours; further: key: -: no inhibition of cell growth; +: total cell-kill
Method in brief: (§2)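 Cells (5×10^4/ml, Dulbecco's medium + 10% FCS) grafted 48 h, then continuously exposed to compound (Hanks'/ethanol, final ethanol <1%) for about 72 h at 37°C, 10% CO2. Crystal violet fixation/staining; inhibiting concentration estimated qualitatively over increasing doses.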

[2] = system: R-1 cells (Rhabdomyosarcoma Cells); assay: R-1 activity (bioliquid assay), cytotoxicity; format: cell-based; details: Rhabdomyosarcoma cell
Method in brief: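 Rhabdomyosarcoma R-1 cells (~10^6 per dish) in Dulbecco's medium with 10% FCS were exposed to drug solution, which was then replaced by fresh medium. Cells were trypsinized after 48 hours and counted electronically.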

in vivo = assay: in vivo; set-up: species or system mice; details: mouse, IP, single dose, suspension in carboxymethyl cellulose (2%)
Procedure: The acute toxicity experiments were carried out with male C5 Black/Rij X CBA/Rij Fl hybrid mice at TNO, Rijswijk. The drugs were administrated IP as suspensions in carboxymethyl cellulose (2%) as a single dose at the first day.

[3] = system: A 204 cells; rhabdomyosarcoma; assay: In vitro panel of human tumour lines (TNO): A 204; format: cell-based; details: about 72 hours; further: key: -: no inhibition of cell growth; +: total cell-kill
Method in brief: as §2

MCF7 breast cancer cells = assay: In vitro panel of human tumour lines (TNO): MCF-7; format: cell-based; details: about 72 hours; further: key: -: no inhibition of cell growth; +: total cell-kill
Method in brief: as §1

IgR37 cells melanoma = assay: In vitro panel of human tumour lines (TNO): IgR-37; format: cell-based; details: about 72 hours; further: key: -: no inhibition of cell growth; +: total cell-kill
Method in brief: as §2

L1210 cells = assay: Lowest active dose (L1210; bioliquid assay); format: cell-based; details: Mus musculus
Source text: The indoloquinones II (formula II) have been tested in respect of their cytotoxic activity against L1210 cells and R-1 cells (Rhabdomyosarcoma Cells) in a bioliquid assay at the department of oncology of the Free University of Amsterdam (Table I). In addition to this seven compounds (E.O. 1, E.O. 2, E.O. 4, E.O. 7, E.O. 9, E.O. 16 and E.O. 17) have been tested on L1210 activity in a clonogenic assay at TNO, Rijswijk. Further, the lowest active doses of the compounds E.O. 1, E.O. 2, E.O. 4 and E.O. 9 have been determined at TNO Rijswijk, according to the method described by Lamberts et al. [Oncology, 40, 301 (1983)]. (Table II). Eight indoloquinones (E.O. 1, E.O. 2, E.O. 4, E.O. 4A, E.O. 8, E.O. 9, E.O. 33 and E.O. 35) have been tested in a panel of five human tumour lines (TNO Rijswijk; Table III). From the latter group three indoloquinones (E.O. 1, E.O. 4 and E.O. 9) have been selected for a cytotoxicity study, involving five slowly growing human tumour lines (University of Freiburg; Table IV).
The lowest active doses for the compounds E.O. 1, E.O. 2, E.O. 4 and E.O. 9 were determined according to the method described by Lamberts et al. [Oncology, 40, 301 (1983)]. In this method, L1210 cells were grown in a series of wells in a culture medium and in the presence of the compound to be tested, as in the determination of L1210 activity in a bioliquid assay reported above, but the compound was present in respective wells in a different concentration, the concentrations extending over an appropriate range. After a suitable incubation period, the lowest active dose for the compound in question was determined by comparing the diameter of each of the precipitation spots with that of a control containing only the culture and the cell suspension, a smaller diameter indicating growth inhibition (Table II).

L1210 = assay: In vivo L1210 experiments (TNO Rijswijk); set-up: species or system mice
Procedure: The in vivo L1210 experiments were carried out in male Balb/c X DBA.2 Fl hybrid mice at TNO, Rijswijk.
In these experiments also, the drugs were administered IP as suspensions in carboxymethyl cellulose […] as a single dose at the first day.

[4] = Homo sapiens, 0.01 μg/ml, read-out: colony formation treated/control (T/C), Lung
[5] = Homo sapiens, 0.1 μg/ml, read-out: colony formation treated/control (T/C), Lung
[6] = Homo sapiens, read-out: colony formation treated/control (T/C), Lung
[7] = Table I, bioliquid assay, read-out: ID-50 R-1
[8] = L1210, bioliquid assay, duplicate experiment, read-out: LAD 2 (lowest active dose)
[9] = L1210, bioliquid assay, read-out: LAD 1 (lowest active dose)

SMILES	in vitro activity score, WiDr (WiDr cells; colon tumour; 0.01 μg/ml)	in vitro activity score, WiDr (WiDr cells; colon tumour; 0.1 μg/ml)	in vitro activity score, WiDr (WiDr cells; colon tumour; 1.0 μg/ml)	in vitro activity score, WiDr (WiDr cells; colon tumour; 10 μg/ml)	in vitro activity score, T 24 ([1]; 0.01 μg/ml)	in vitro activity score, T 24 ([1]; 0.1 μg/ml)	IC50 [2, 7]	LD50 (in vivo)	in vitro activity score, A 204 ([3]; 0.01 μg/ml)	in vitro activity score, A 204 ([3]; 0.1 μg/ml)	in vitro activity score, A 204 ([3]; 10 μg/ml)	in vitro activity score, MCF-7 (MCF7 breast cancer cells; 0.01 μg/ml)	in vitro activity score, MCF-7 (MCF7 breast cancer cells; 0.1 μg/ml)	in vitro activity score, MCF-7 (MCF7 breast cancer cells; 1.0 μg/ml)	in vitro activity score, MCF-7 (MCF7 breast cancer cells; 10 μg/ml)	in vitro activity score, IgR-37 (IgR37 cells melanoma; 0.01 μg/ml)	in vitro activity score, IgR-37 (IgR37 cells melanoma; 0.1 μg/ml)	in vitro activity score, IgR-37 (IgR37 cells melanoma; 10 μg/ml)	minimal effective concentration (L1210 cells; [8])	minimal effective concentration (L1210 cells; [9])	further results
COC1=CC(=O)c2c(c(COC(C)=O)c(/C=C/COC(C)=O)n2C)C1=O [E.O. 1, 3-Acetoxymethyl-5-methoxy-1-methyl-2-[1H-indole-4,7-dione]prop-β-en-α-yl acetate]	-	-	-	+	-	-	2.3 mg/L	10 to 30 mg/kg	-	-	+	-	-	-	+	-	-	+	1.02 to 2.05 µg/mL	1.02 to 2.05 µg/mL	activity at 0.01 µg/mL (lung-NSCLC tumour line; [4]): 48%; activity at 0.1 µg/mL (lung-NSCLC tumour line; [5]): 4%; activity at 1 µg/mL (lung-NSCLC tumour line; [6]): 0%; IC50 ([2]; Table VI, read-out: ID-50 R-1): 0.3 mg/L
COC(=O)OC/C=C/c1c(COC(=O)OC)c2c(n1C)C(=O)C=C(OC)C2=O [E.O. 2, Methyl 5-methoxy-3-methoxycarbonyloxymethyl-1-methyl-2-[1H-indole-4,7 dione]prop-β-en-α-yl carbonate]	-	-	-	+	-	-	0.4 mg/L (≈ 1.02 µM)	30 to 100 mg/kg	-	-	+	-	-	-	+	-	-	+	1.02 to 2.05 µg/mL	1.02 to 2.05 µg/mL	in vitro activity score, T 24 ([1]; 1.0 μg/ml): -; in vitro activity score, T 24 ([1]; 10 μg/ml): +; % T/C (L1210; 80 mg/kg IP single dose): tox.; response vs control in vivo at 30 mg/kg (L1210; Mus musculus, L1210, 30 mg/kg IP single dose, read-out: % T/C): 100%; response vs control in vivo at 40 mg/kg (L1210; Mus musculus, L1210, 40 mg/kg IP single dose, read-out: % T/C): 113%; response vs control in vivo at 60 mg/kg (L1210; Mus musculus, L1210, 60 mg/kg IP single dose, read-out: % T/C): 100%; in vitro activity score, A 204 ([3]; 1.0 μg/ml): -; in vitro activity score, IgR-37 (IgR37 cells melanoma; 1.0 μg/ml): -
Cn1c(/C=C/CO)c(CO)c2c1C(=O)C=C(N1CC1)C2=O [E.O. 9, 5-Aziridino-3-hydroxymethyl-1-methyl-2-[1H-indole-4,7-dione]prop-β-en-α-ol]	-	+	+	+	-	+	0.003 mg/L (≈ 0.0104 µM)	10 mg/kg	-	+	+	-	+	+	+	+	+	+	1.02 µg/mL	0.512 to 1.02 µg/mL	activity against the lung cell line (lung-NSCLC tumour line; 0.01 μg/ml): active; activity at 0.01 µg/mL (lung-NSCLC tumour line; [4]): 0%; activity at 0.1 µg/mL (lung-NSCLC tumour line; [5]): 0%; activity at 1 µg/mL (lung-NSCLC tumour line; [6]): 0%; in vitro activity score, T 24 ([1]; 1.0 μg/ml): +; in vitro activity score, T 24 ([1]; 10 μg/ml): +; % T/C (L1210; 6, 8, 10 mg/kg IP single dose): tox.; response vs control in vivo at 2 mg/kg (L1210; Mus musculus, L1210, 2 mg/kg IP single dose, read-out: % T/C): 144%; response vs control in vivo at 4 mg/kg (L1210; Mus musculus, L1210, 4 mg/kg IP single dose, read-out: % T/C): 100%; IC50 ([2]; Table VIII, read-out: ID-50 R-1): 0.0034 mg/L (≈ 0.0118 µM); in vitro activity score, A 204 ([3]; 1.0 μg/ml): +; in vitro activity score, IgR-37 (IgR37 cells melanoma; 1.0 μg/ml): +
CC(=O)OC/C=C/c1c(COC(C)=O)c2c(n1C)C(=O)C=C(N1CC1)C2=O [E.O. 4, 3-Acetoxymethyl-5-aziridino-1-methyl-2-[1H-indole-4,7-dione]prop-β-en-α-yl acetate]	-	-		+	-	-			-	-	+	-	-		+	-	-	+			activity against the lung cell line (lung-NSCLC tumour line; 0.01 μg/ml): active; activity at 0.001 µg/mL (lung-NSCLC tumour line; [6]): 64%; activity at 0.01 µg/mL (lung-NSCLC tumour line; [6]): 8%; activity at 0.1 µg/mL (lung-NSCLC tumour line; [6]): 0%; in vitro activity score, T 24 ([1]; 1.0 μg/ml): +; in vitro activity score, T 24 ([1]; 10 μg/ml): +; % T/C (L1210; 15 mg/kg IP single dose): tox.; % T/C (L1210; 25, 30 mg/kg IP single dose): tox.; response vs control in vivo at 20 mg/kg (L1210; Mus musculus, L1210, ip, read-out: % T/C): 100%; IC50 ([2]; read-out: ID-50 R-1, Table VIII): 0.025 mg/L; in vitro activity score, A 204 ([3]; 1.0 μg/ml): +; in vitro activity score, IgR-37 (IgR37 cells melanoma; 1.0 μg/ml): +; minimal effective concentration (L1210 cells; L1210, read-out: LAD 1 (lowest active dose)): 0.032 to 0.064 µg/mL; minimal effective concentration (L1210 cells; L1210, read-out: LAD 2 (lowest active dose)): 0.064 µg/mL
